Structures are written as SMILES. Structures can show the parent of a compound that is named as a salt.

One test deals with T1, mGluR5 (Homo sapiens, UniProt P41594).
T1 construct: expressed in transfected cells
T1 sequence (P41594 21-1180 isoform P41594-2 limits assumed): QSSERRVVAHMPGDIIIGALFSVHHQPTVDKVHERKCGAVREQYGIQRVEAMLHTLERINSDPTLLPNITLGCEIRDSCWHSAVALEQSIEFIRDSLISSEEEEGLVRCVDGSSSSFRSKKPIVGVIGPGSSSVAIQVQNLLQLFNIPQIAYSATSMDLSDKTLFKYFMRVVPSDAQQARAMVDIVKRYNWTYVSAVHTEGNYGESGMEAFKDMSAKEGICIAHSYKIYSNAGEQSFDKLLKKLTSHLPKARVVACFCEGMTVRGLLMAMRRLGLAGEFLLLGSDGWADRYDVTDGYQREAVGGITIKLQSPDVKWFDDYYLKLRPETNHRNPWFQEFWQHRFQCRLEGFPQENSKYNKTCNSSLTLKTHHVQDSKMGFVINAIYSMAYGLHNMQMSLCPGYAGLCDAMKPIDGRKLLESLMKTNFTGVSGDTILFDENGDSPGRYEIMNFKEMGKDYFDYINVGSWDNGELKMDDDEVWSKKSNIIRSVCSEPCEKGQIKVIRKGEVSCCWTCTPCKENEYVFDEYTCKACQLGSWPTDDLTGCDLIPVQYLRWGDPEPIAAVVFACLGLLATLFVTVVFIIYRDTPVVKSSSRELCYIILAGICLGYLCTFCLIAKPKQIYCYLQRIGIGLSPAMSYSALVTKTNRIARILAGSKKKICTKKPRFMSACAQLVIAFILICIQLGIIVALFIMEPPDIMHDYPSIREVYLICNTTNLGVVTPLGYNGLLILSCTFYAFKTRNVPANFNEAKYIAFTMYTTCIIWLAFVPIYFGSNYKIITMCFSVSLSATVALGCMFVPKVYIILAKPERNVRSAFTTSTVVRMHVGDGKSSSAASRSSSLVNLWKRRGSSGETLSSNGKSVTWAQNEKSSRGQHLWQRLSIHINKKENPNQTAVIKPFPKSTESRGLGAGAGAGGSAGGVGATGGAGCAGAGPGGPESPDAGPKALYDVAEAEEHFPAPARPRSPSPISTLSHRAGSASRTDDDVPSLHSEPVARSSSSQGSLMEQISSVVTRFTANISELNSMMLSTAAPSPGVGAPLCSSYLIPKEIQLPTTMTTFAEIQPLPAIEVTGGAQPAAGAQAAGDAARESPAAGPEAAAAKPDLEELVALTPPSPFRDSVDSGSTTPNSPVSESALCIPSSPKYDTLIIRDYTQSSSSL
Put plainly: inhibition of the glutamate induced elevation of intracellular Ca2+-concentration. In kind it is cell-based. The settings on record: inhibition of glutamate induced elevation of intracellular Ca2+-concentration at a concentration of 10 μM. The source says:
This can be determined in vitro for example at recombinant human metabotropic glutamate receptors, especially PLC-coupled subtypes thereof such as mGluR5, using different procedures like, for example, measurement of the inhibition of the agonist induced elevation of intracellular Ca^2+ concentration in accordance with L. P. Daggett et al., Neuropharm.
Regarding `C[C@H]1CCCN(C(=O)c2ccc(Nc3ccc(Cl)cc3)nc2)C1` [Compound 1.12a, [6-(4-Chloro-phenylamino)-pyridin-3-yl]-(S-3-methyl-piperidin-1-yl)-methanone], the “mGluR5 Activity inh. at 10 μM [%]” value is on record as 99%. The same measure, in the same setting: the result for `Cc1ccc(Nc2ccc(C(=O)N3CCCC(C)C3)cn2)cc1` (centres unmarked) [Compound 1.13] reads 96%; that for `O=C(c1ccc(Nc2ccc(Cl)cc2)nc1)N1C2CCC1CC(O)C2` (centres unmarked) [Compound 4.11, [6-(4-Chloro-phenylamino)-pyridin-3-yl]-(3-hydroxy-8-aza-bicyclo[3.2.1]oct-8-yl)-methasone], 51%; that for `Cc1ccc(Nc2ccc(C(=O)N3CCC[C@H](C)C3)cn2)cn1` [Compound 4.13a, (S-3-Methyl-piperidin-1-yl)-[6-(6-methyl-pyridin-3-ylamino)-pyridin-3-yl]-methanone], 97%. Same read-out and setting: the same measure for `Cc1ccc(Nc2ncc(C(=O)N3CCCC4CCCC43)cc2Cl)cn1` (centres unmarked) [Compound 4.25, [5-Chloro-6-(6-methyl-pyridin-3-ylamino)-pyridin-3-yl]-(octahydro-[1]pyrindin-1-yl)-methasone]: 98%; for `CCC[C@H]1CCCCN1C(=O)c1cnc(Nc2ccc(C)nc2)c(Cl)c1` [Compound 4.35, [5-Chloro-6-(6-methyl-pyridin-3-ylamino)-pyridin-3-yl]-((S)-2-propyl-piperidin-1-yl)-methasone]: 85%; for `C/C=C\C1CCCCN1C(=O)c1cnc(Nc2ccc(C)nc2)c(Cl)c1` (centres unmarked) [Compound 4.56, [5-Chloro-6-(6-methyl-pyridin-3-ylamino)-pyridin-3-yl]-[((Z)-2-propenyl)-piperidin-1-yl]-methanone]: 97%.

As for `CCOCC1CCCCN1C(=O)c1cnc(Nc2ccc(C)nc2)c(Cl)c1` (centres unmarked) [Compound 4.60, [5-Chloro-6-(6-methyl-pyridin-3-ylamino)-pyridin-3-yl]-(2-thoxymethyl-piperidin-1-yl)-methanone], the “mGluR5 Activity inh. at 10 μM [%]” value amounted to 97%. Turning to `CCC(CC)C1OCCCCN1C(=O)c1cnc(Nc2ccc(C)nc2)c(Cl)c1` (centres unmarked) [Compound 4.67], the “mGluR5 Activity inh. at 10 μM [%]” value was 95%.

Staying with this test, now noted: read-out: mGluR5 Activity inh. at 10 μM [%].
As to `COc1ccc(Nc2ccc(C(=O)N3C[C@@H](C)O[C@@H](C)C3)cn2)cc1` [Compound 1.21, (cis-2,6-Dimethyl-morpholin-4-yl)-[6-(4-methoxy-phenylamino)-pyridin-3-yl]-methanone hydrochloride], the inhibition at 10 µM turned out to be 57%. The same measure, in the same setting: the result for `Cc1ccc(Nc2ncc(C(=O)N3CCC[C@@H]4CCC[C@@H]43)cc2Cl)cn1` [Compound 4.26, [5-Chloro-6-(6-methyl-pyridin-3-ylamino)-pyridin-3-yl]-(4aS,7aS)-octahydro-[1]pyrindin-1-yl-methanone] reads 93%.

For the origin of these results see patent publication US20120309742A1, “USE OF METABOTROPIC GLUTAMATE RECEPTORS” (priority 2006, published 2012).
